Experimental data from the OPERA property sets (Mansouri et al. 2018).
Converted amounts (≈) assume the structure as drawn.

Conditions: for solubility: 25 °C

Structure (SMILES)	logP	solubility [mM]
O=Cc1cc(Br)ccc1Br	3.35	0.158 (≈ 41.8 µg/mL)
O=Cc1ccc(O)c(O)c1	1.09	–
COc1cc(C=O)cc(OC)c1OC	1.39	–
O=Cc1ccc(O)cc1	–	106 (≈ 12900 µg/mL)
COc1ccc(C=O)cc1OC	–	38 (≈ 6320 µg/mL)
COc1ccc(OC)c(C=O)c1	1.91	4.78 (≈ 795 µg/mL)

Next, values leading:

logP	solubility [mM]	Structure (SMILES)
2.5	0.562 (≈ 113 µg/mL)	O=Cc1cc(O)cc(Br)c1
1.63	–	CCOc1ccc(C=O)cc1OC
1.29	–	O=Cc1cccc(O)c1
1.88	–	CC(C)OC(=O)COc1ccc(C=O)cc1
0.54	99.9 (≈ 13800 µg/mL)	O=Cc1cc(O)ccc1O
1.83	6.62 (≈ 1330 µg/mL)	O=Cc1ccc(O)c(Br)c1
